Experimental data taken from patent publication US12447186B2, “Traditional Chinese medicine compound composition with anti-anxiety effect and preparation method and applications thereof” (Chenland Nutritionals Inc., priority 2020, dated 2025).

Assays:
mice [1] = experiment: Light-dark box test; assay type: in vivo; conditions: gavage one month, 5 min, Diazepam 2 mg/kg
Protocol: (§1) After the mice arrived, they were acclimatized for a week to enter the experiment. There were 12 mice in each group.
(§2) The normal group mice were gavaged with the same volume of purified water, and the gavage doses of other groups were illustrated in the results table section below. The mice were gavaged every morning at fixed time (9:00) with a gavage volume of 0.1 ml·10 g^−1. the administration lasted for one month, and behavioral assays were performed 1 h after the last gavage.
The light and dark box is composed of an integral box which is divided into two compartments (light area and dark area) of the same size (L×w×H=25 cm×25 cm×30 cm) by a middle gate (6.5 cm×6.5 cm). The light area is illuminated by white light, and the dark area is illuminated by red light. At the beginning of the test, each mouse was placed in the center of the light area facing the partition wall, and the middle gate was removed. Once four claws of one mouse entered the compartment, it was recorded as one entry. Supermaze software was used to record the distance in light area, retention time in light area and number of entries into light area in 5 minutes.

mice [2] = experiment: Open field test; assay type: in vivo; conditions: 6 min, Diazepam 2 mg/kg
Protocol: as §1, §2
The test was performed inside an open field box with 50 cm long, 50 cm wide, and 50 cm deep. The bottom of the open field box was equally divided into nine squares, with the right middle area being the central area and the remaining area being the peripheral area. The bottom and surrounding of the open field box were all white. The test was performed in a quiet weak red light environment. At the beginning, the mice were placed in the center of the open field box, and the activity within 6 minutes was observed. Total running distance, running distance in central area and number of entries into central area of the mice were recorded.

SMILES: CN1C(=O)CN=C(c2ccccc2)c2cc(Cl)ccc21 [Diazepam]
- Distance in light area (mice [1]): 18141 ± 1011
- Number of entries into light area (mice [1]): 18.92 ± 1.540
- Total running distance (mice [2]; gavage daily for one month, 1 h after last gavage): 29927 ± 2380
- Number of entries into central area (mice [2]; gavage one month): 12.78 ± 1.498
- Running distance in central area (mice [2]; gavage one month): 2168 ± 218.6
